The values below come from patent US20030186869A1, “Polymer compositions comprising antifibrotic agents, and methods of treatment, pharmaceutical compositions, and methods of preparation therefor” (priority 1990, published 2003).

In data set [1] the test system is Smooth muscle cells. The data set is described as follows: Smooth muscle cell proliferation, cells counted daily. The format is cell-based. The note with it: six day period, compared to free cHyp and tHyp. From the text:
As can be noted with respect to FIGS. 6-9, the antifibrotic agents can be conjugated with PEG or another polymer and used to reduce cellular proliferation in the presence of collagen metabolism. In FIG. 6, the effect of free cHyp, polymeric cHyp and free trans-hydroxyproline were compared over a six day period. Smooth muscle cells were allowed to proliferate in the presence of free cHyp, polymeric cHyp and trans-hydroxyproline. The polymeric cHyp was produced as described above and contained ester linkages. On each day, the cells were trypsinized and counted with a hemocytometer. […] This is further supported by the data illustrated in FIG. 9, generated with fibroblast cells. […] See, e.g., FIG. 7, which presents a comparison of activity between the ester linked polymer and the amide linked polymer in FIG. 8.

The test system of data set [2] is RFL-6 cells. The data set is described as follows: IC50 experiment, cytotoxicity / growth inhibition of RFL-6 rat fibroblast cells. The format is cell-based. The note with it: for factor by which cytotoxicity as PEG construct is reduced compared to the free amino acid: RFL-6 cells; for IC50: mean ± SD (n). As to the method:
In this test two different synthesis batches of cis-hydroxyproline (CHOP) linked to PEG were tested, along with free CHOP. […] The differences between the two batches of CHOP-PEG are not significant.

In data set [3] the test system is rats exposed to hypoxia (10% O2). The data set is described as follows: cHyp (free or in liposomes) in rats developing hypoxic pulmonary hypertension. The format is in vivo, rat. The note with it: for Hct / RVP / RV/(LV + S) / Protein: Hypoxia, day 3; for Protein: pulmonary artery. From the text: Six week old male Sprague Dawley rats (Crl:CD[SD]BR) weighing 185-205 g and 8 week old female Swiss mice (Crl:CP-1[ICR]BR) weighing 30-32 g (Charles River Breading Laboratories, Wilmington, Mass.) were maintained in a holding area one week prior to study and were fed food and water ad libitum. Rats were randomly allocated to hypoxia or air groups; mice breathed air. Animals were kept in a 12-hour light-dark cycle.
Four rats were placed in a polycarbonate chamber measuring 51×41×22 cm, and humidified gas (10% O2, 90% N2 flowed into the chamber at a rate of 400 ml/min. Gas samples were analyzed electrometrically (model MB53-MK2, Radiometer, Copenhagen, Denmark); PO2 ranged from 74-80 mmHg and PCO2 from 3-5 mmHg. Air-breathing rats were kept in cages in the same room and were pair-fed to hypoxic animals by weighing the food consumed by hypoxic animals and feeding the same amount of food to air-breathing animals to ensure similar final body weights. The chambers were opened once daily for 10 min. to clean, weigh and feed the animals.
A catheter was placed in the right ventricle of anesthetized rats (50 mg/kg pentobarbital intraperitoneally), and mean right ventricular pressure was measured using a pressure transducer (model P23Db, Statham, Instruments, Oxnard, Calif.) and recorded (model SP-2006, Statham Instruments). Pressure was measured after the animal had breathed air for 20 min. to eliminate the tonic response to hypoxia. After sacrifice by abdominal aorta transection, hematocrit and ratio of ventricular weights were measured, and the position of the catheter was confirmed at autopsy.
Main pulmonary artery (9 mm in length) was excised and analyzed for total protein and hydroxyproline contents as previously described. Tissue was hydrolyzed in 6N HCl at 118° C. for 48 hrs., diluted 1:10 in water, and a 0.1 ml aliquot was assayed for total protein by the ninhydrin method using leucine as standard and for hydroxyproline by a calorimetric method. Results of triplicate measurements were expressed as content per vessel.
Cis-4-hydroxy-L-proline dissolved in saline (free cHyp) or saline alone were injected subcutaneously (0.5 ml) or intravenously. Intravenous injections were performed in anesthetized animals (25 mg/kg thiopental, intraperitoneally). In rats, liposomes containing cHyp or empty liposomes were injected intravenously (18 μmol phospholipid in […]) via the dorsal vein of the penis over 5 sec using a 30 gauge needle. In mice, liposomes (18 μmol phospholipid in 0.5 ml) were injected into the tail vein.
Four modes of delivery of cHyp were used in rats. Free cHyp (200 or 100 mg/kg) was injected subcutaneously twice daily during exposure to hypoxia. A single dose of free cHyp (200 mg/kg) was given intravenously prior to exposure to hypoxia. Single doses of cHyp entrapped in liposomes (200 or 100 mg/kg) were injected intravenously prior to exposure to hypoxia. Multiple doses of cHyp in liposomes (200 mg/kg) were injected intravenously prior to hypoxia and every 5 days during exposure to hypoxia. Single doses of cHyp entrapped in liposomes after reticuloendothelial blockage were produced by intravenous injection of a single dose of empty liposomes followed 30 minutes later by a single intravenous dose of cHyp entrapped in liposomes (100 or 50 mg/kg) prior to exposure to hypoxia. The purpose was to enhance the localization of liposomes containing cHyp to the lungs by prior treatment with empty liposomes as temporary reticuloendothelial blocking agents.
In each animal, we assessed the effect of injection of cHyp on five parameters of exposure to hypoxia: mean right ventricular pressure (RVP) measured after the animal had been removed from the hypoxic environment, ratio of ventricular weights (RV/[LV+S]), hematocrit, and the contents of hydroxyproline and protein in the pulmonary artery. For each experimental group, comparisons were made to a group exposed to hypoxia and injected with a control substance and to a group exposed to air. […]

Data set [4] deals with air-breathing rats. The data set can be described thus: cHyp in air-breathing rats, parameters of exposure to hypoxia. The note with it: for Hct / RV/(LV + S) / RVP / Protein: Air, day 3; for Protein: pulmonary artery. The format is in vivo, rat. An excerpt: In each animal, we assessed the effect of injection of cHyp on five parameters of exposure to hypoxia: mean right ventricular pressure (RVP) measured after the animal had been removed from the hypoxic environment, ratio of ventricular weights (RV/[LV+S]), hematocrit, and the contents of hydroxyproline and protein in the pulmonary artery. For each experimental group, comparisons were made to a group exposed to hypoxia and injected with a control substance and to a group exposed to air. For free cHyp, the control substance was saline; for cHyp entrapped in liposomes, the control substance was empty liposomes. Groups were age-matched; the air group was weight-matched to the hypoxic group injected with the control substance. Average results of each parameter were compared.
The sixth protocol studied whether cHyp injected in air breathing rats affected any of the parameters of exposure to hypoxia. Air groups were given free cHyp 200 or 100 mg/kg subcutaneously twice daily for 3 days (Groups 13 and 14) and were compared to saline injected animals. A group was injected with 200 mg/kg of cHyp in liposomes every 5 days during a 21-day exposure to air (Group 15), and results were compared to a group injected with empty liposomes every 5 days during a 21-day exposure to air.

A short description of data set [5]: Serum release study in fetal calf serum. The format is in vitro ADME, bovine. The settings on record: six day incubation in FCS at 37° C. As to the method:
(§1) Buffers at various pH levels were prepared according to the method described in Davies, The Analyst, 1959, 4:248-251, with final ionic strengths of approximately 0.15 mol./L. Incubation samples were prepared by dissolving the dual-labeled conjugate in the appropriate medium to obtain a 50 mg/mL concentration and immediately syringe filtering through 0.45 μm nylon filters. Aliquots (25-30 μL) at specified time points were removed for GPC analysis-fractionation. Release rates were determined by monitoring cleavage of the radiolabeled [^3H]-cHyp from the radiolabeled [^14C] polymeric backbone. Separation of the relatively high molecular weight backbone from the low molecular weight drug was readily achieved via gel permeation chromatography, which is a size separation technique, followed by scintillation counting of the collected fractions. This necessitated using radiolabeled-conjugate concentrations of 50 mg/mL, i.e., 1 mg of conjugate injected per run, resulting in appropriate molecular weight analysis and specific activity determinations for the collected fractions. The serum release studies were conducted in 100% heat inactivated fetal calf serum (ΔFCS) at 37° C. at a concentration of 50 mg/mL of conjugate to ΔFCS, over a six day period.

Data set [6] is described as follows: Hydrolytic stability of dual-labeled conjugate in pH buffers (GPC, scintillation counting). The format is physicochemical. The note with it: six day period. As to the method: as §1, with “The serum release studies were conducted in 100% heat inactivated fetal calf serum (ΔFCS) at 37° C. at a concentration of 50 mg/mL of conjugate to ΔFCS, over a six day period.” left out
The polymeric conjugate consists of two distinctly different parts: (a) the polymeric backbone [poly(PEG-Lys)]; and (b) the pendent chain which consists of the drug molecule and its linking bond (cHyp). […] The hydrolytic stability of the polymeric conjugate was monitored over a six day period. The stability of the bonds present in the polymeric conjugate (ether, amide and urethane) was evaluated by incubation of the dual-labeled polymeric conjugate at the specified pH. Aliquot removal at specified time intervals, followed by GPC analysis with fractionation, permitted the quantitative monitoring of both carrier stability (molecular weight profile) and drug release (determination of [^3H]/[^14C] ratio by scintillation counting), as is shown in FIG. 12. In the pH range from 0 to 12, no change in either molecular weight, polydispersity or the [^3H] to [^14C] ratio could be detected throughout the test period.

The mark [7] stands for this setting: Rattus norvegicus, RFL-6, free amino acid, read-out: IC50, Free AA.
[8] abbreviates: 100 mg/kg subcutaneously for 3 days.

Read-outs that look alike come from different tables or passages of the source.

As to “Poly(PEG-Lys-cis-Hyp) Copolymer [amide linked polymer]”, the Cellular proliferation entry in data set [1] was “further reduced”.
Turning to “Poly(PEG-Lys-cis-Hyp) Copolymer [polymeric cHyp]”, the Cellular proliferation result in data set [1] is “significantly reduced”.
With `O=C(O)[C@@H]1CCN1` [ACA, (S)-(−)-2-azetidinecarboxylic acid], the “factor by which cytotoxicity as PEG construct is reduced compared to the free amino acid” value in data set [2] came to 4 ×. Further, the IC50 (commonly the midpoint of a concentration-inhibition curve) in data set [2] (setting [7]) came out at 1700 ± 1800 µM.
The like results for `O=C(O)[C@@H]1CSCN1` [THP, (R)-(−)-2-thiazolidine-4-carboxylic acid] were, in that order, 12 × and 700 ± 100 µM.
Consider `O=C(O)C1C=CCN1` (racemic) [DHP, 3,4-dehydro-DL-proline], for which, in data set [2], the “factor by which cytotoxicity as PEG construct is reduced compared to the free amino acid” value is on record as 8 ×. The IC50 in data set [2] (setting [7]) was determined as 700 ± 300 µM.
Regarding `O=C(O)[C@@H]1C[C@H](O)CN1` (stereo in doubt) [cHyp, cis-4-hydroxy-L-proline], the concentration for half-maximal inhibition (IC50) in data set [2] (setting [7]) was determined as 8800 ± 5100 µM. Also, in data set [3] (setting [8]), the hematocrit entry is recorded as “partial decrease” and the “increased RVP, RV/(LV+S) or hydroxyproline or protein contents” value was “did not prevent”. The pulmonary hypertension result in data set [3] (200 mg/kg subcutaneously twice daily for 3 days) was “partially prevented”. In data set [3] (100 mg/kg sq bid × 3 days), this compound yielded a Hct of 51 ± 1 %, an RVP of 14 ± 1 mmHg and a Protein of 2.3 ± 0.3 mg/vessel. In data set [3] (200 mg/kg iv × 1 injection), the Hct is given as 55 ± 1 %, the “RV/(LV + S)” value is 0.32 ± 0.01 %, the RVP is 14 ± 1 mmHg and the Protein turned out to be 2.3 ± 0.3 mg/vessel. Besides, in data set [3] (200 mg/kg sq bid × 3 days), the Hct stood at 51 ± 1 %, the “RV/(LV + S)” value came out at 0.25 ± 0.01 %, the RVP came to 10 ± 1 mmHg and the Protein is given as 1.4 ± 0.1 mg/vessel. Besides, the “minimal total dose required to prevent hypoxic pulmonary hypertension” value in data set [3] (at 5 days, subcutaneous (200 mg/kg twice daily)) is on record as 2000 mg/kg. Also, the “effect on any parameter” value in data set [3] (injected intravenously prior to hypoxic exposure) is “no effect”. Besides, in data set [4] (100 mg/kg sq bid × 3 days), the Hct stood at 47 ± 1%, the “RV/(LV + S)” value is listed as 0.25 ± 0.01%, the RVP was 9 ± 1 mmHg and the Protein was found to be 1.2 ± 0.1 mg/vessel. In data set [4] (200 mg/kg sq bid × 3 days), the Hct amounted to 46 ± 1%, the “RV/(LV + S)” value amounted to 0.24 ± 0.01%, the RVP turned out to be 9 ± 1 mmHg and the Protein came to 1.2 ± 0.1 mg/vessel. The “effect on any of the measured parameters” value in data set [4] (air, 200 mg/kg or 100 mg/kg twice daily subcutaneously for 3 days) is given as “no effect”.
For `NCCCC[C@H](N)C(=O)N1C[C@@H](O)C[C@H]1C(=O)O` (relative stereo) [CHOP-Lys, L-lysine-cis-4-hydroxy-L-proline dipeptide], the IC50 in data set [2] (lysyl dipeptide, read-out: IC50, AA-Lys) came out at 7000 µM.
On to “poly(PEG-[^14C]Lys-[^3H]cHyp) [dual-labeled polymeric conjugate]”, for which, in data set [5], the “cleavage of [3H]cHyp from the carrier” value is recorded as “did not occur to any appreciable extent” and the polymer backbone stability entry is “completely maintained”. Besides, in data set [6] (pH 14, 25° C.), the “change in [3H]/[14C] ratios (amide stability)” value was “relatively no change” and the polymer backbone stability entry is “Massive backbone degradation”. Besides, in data set [6] (pH range from 0 to 12, 25° C.), the “change in molecular weight, polydispersity or [3H] to [14C] ratio” value was “no change”.
